Read-outs that look alike come from different tables or passages of the source.
Experiments:
[1] = biological target: T1, SARS-CoV-2 nsp13 (Severe acute respiratory syndrome coronavirus 2, UniProt P0DTD1); experiment: SARS-CoV-2 nsp13 ATPase-associated activity assay; format: biochemical; settings: for Activity in enzyme assay IC50 ATPase BSA-TCEP / IC50: SARS-CoV-2 nsp13-associated ATPase activity, means ± SD from two experiments in triplicate; for IC50: read-out: Activity in enzyme assay IC50 ATPase BSA-TCEP; for remaining activity at 30 µM: given in brackets beside IC50 >30 μM, read-out: Percentage of enzymatic residual activity, ATPase
[2] = biological target: T1, SARS-CoV-2 nsp13; experiment: SARS-CoV-2 nsp13 unwinding-associated activity assay; format: biochemical; settings: for IC50: SARS-CoV-2 nsp13-associated unwinding activity, means ± SD from two experiments in triplicate, read-out: Activity in enzyme assay IC50 Unwinding BSA-TCEP; for selectivity for unwinding over ATPase: IC50 ATPase vs IC50 unwinding; for remaining activity at 30 µM: given in brackets beside IC50 >30 μM, read-out: Percentage of enzymatic residual activity, unwinding
[3] = system: SARS-CoV-2; settings: read-out: EC50 antiviral activity; cited from earlier work
[4] = in vitro; settings: African green monkey
[5] = system: SARS-CoV-2; experiment: SARS-CoV-2 plaque assay in infected Vero E6 cells; format: cell-based; settings: for EC50: Severe acute respiratory syndrome coronavirus 2, plaque assay, means ± SD, n = 9, read-out: EC50, concentration reducing SARS-CoV-2 replication in Vero cells by 50%
[6] = biological target: T1, SARS-CoV-2 nsp13; experiment: Mode-of-action assay (incubation-dependent potency, covalent/noncovalent); format: biochemical; settings: for IC50: read-out: IC50 at time-point
[7] = biological target: T1, SARS-CoV-2 nsp13; settings: read-out: IC50 vs unwinding; cited from earlier work
[8] = biological target: T1, SARS-CoV-2 nsp13; set-up: method as in PMID 37562607; settings: SARS-CoV-2 nsp13 ATPase; cited from earlier work
[9] = system: Vero cells; set-up: method as in PMID 37562607; settings: cited from earlier work
[10] = system: MERS-CoV; settings: cited from earlier work
[11] = system: SARS-CoV-2; set-up: method as in PMID 37562607; settings: cited from earlier work; for EC50: read-out: EC50 SARS-CoV-2 replication
[12] = biological target: T1, SARS-CoV-2 nsp13; set-up: method as in PMID 37562607; settings: SARS-CoV-2 nsp13 unwinding; cited from earlier work
[13] = system: HCoV229E; set-up: method as in PMID 37562607; settings: cited from earlier work

O=C(O)/C(O)=C/C(=O)c1cn(-c2ccc(F)cc2)c2ccccc12 [Compound 7e]
Activity in enzyme assay IC50 ATPase BSA-TCEP [1]: no activity | IC50 [1]: > 30 µM | remaining activity at 30 µM [1]: 99.3% | IC50 [2]: 7.03 ± 1.94 µM

CCOC(=O)/C(O)=C/C(=O)/C=C/c1cn(-c2ccc(OC)cc2)c2ccccc12 [Compound 6a]
IC50 [1]: 10.4 ± 0.13 µM | IC50 [2]: 7.59 ± 1.5 µM

CC(C)=CCc1c(O)cc(O)c2c(=O)cc(-c3ccc(O)cc3)oc12 [licoflavone C]
EC50 [3]: > 100 µM

CCOC(=O)/C(O)=C/C(=O)/C=C/c1cn(-c2ccc(C)cc2)c2ccccc12 [Compound 6b]
IC50 [1]: 8.64 ± 0.77 µM | IC50 [2]: 13.9 ± 1.5 µM

CCOC(=O)/C(O)=C/C(=O)c1cn(-c2ccc(C(C)C)cc2)c2ccccc12 [Compound 8c]
IC50 [1]: 15.7 ± 0.1 µM | IC50 [2]: 8.04 ± 2.1 µM

O=C(/C=C(\O)C(=O)O)/C=C/c1cn(-c2ccc(C(F)(F)F)cc2)c2ccccc12 [Compound 5h]
IC50 [1]: 14.2 ± 1.6 µM | CC50 [4]: > 100 µM | SI = CC50/EC50 [5]: >21 | EC50 [5]: 4.56 ± 1.86 µM | selectivity for unwinding over ATPase [2]: 30 fold | IC50 [2]: 0.21 ± 0.11 µM

COc1ccc(-n2cc(C(=O)/C=C(\O)C(=O)O)c3ccccc32)cc1 [Compound 7a]
IC50 [1]: > 30 µM | remaining activity at 30 µM [1]: 68.7% | IC50 [2]: > 30 µM | remaining activity at 30 µM [2]: 63.9%

O=C(/C=C(\O)C(=O)O)/C=C/c1cn(-c2ccccc2)c2ccccc12 [Compound 5d]
IC50 [1]: 13.1 ± 0.37 µM | IC50 [2]: 11.8 ± 0.48 µM

CCOC(=O)/C(O)=C/C(=O)c1cn(-c2ccc(OC)cc2)c2ccccc12 [Compound 8a]
IC50 [1]: 19.06 ± 0.14 µM | IC50 [2]: 18.8 ± 0.22 µM

CCOC(=O)/C(O)=C/C(=O)/C=C/c1cn(-c2ccccc2)c2ccccc12 [Compound 6d]
IC50 [1]: 4.94 ± 0.21 µM | IC50 [2]: 3.77 ± 0.13 µM

CC(C)c1ccc(-n2cc(/C=C/C(=O)/C=C(\O)C(=O)O)c3ccccc32)cc1 [Compound 5c]
IC50 [1]: 8.43 ± 0.04 µM | CC50 [4]: > 100 µM | SI = CC50/EC50 [5]: >47 | EC50 [5]: 2.12 ± 0.67 µM | selectivity for unwinding over ATPase [2]: 70 fold | IC50 [2]: 0.26 ± 0.01 µM

CCOC(=O)/C(O)=C/C(=O)/C=C/c1cn(-c2ccc(C(F)(F)F)cc2)c2ccccc12 [Compound 6h]
IC50 [1]: 1.21 ± 0.16 µM | IC50 ([6]; 1 min after the activation of the reaction): 0.3 µM | IC50 ([6]; 5 min after the activation of the reaction): 0.48 µM | IC50 ([6]; 10 min after the activation of the reaction): 0.79 µM | IC50 ([6]; 15 min after the activation of the reaction): 1.06 µM | IC50 ([6]; 20 min after the activation of the reaction): 1.31 µM | nature of the inhibition ([6]; from time-increased IC50 values): noncovalent | effect of extended preincubation of compound and enzyme on potency ([6]; preincubation +20 min and +50 min at room temperature): did not lead to increasing in inhibitory potency | CC50 [4]: > 100 µM | SI = CC50/EC50 [5]: >21 | EC50 [5]: 4.69 ± 1.8 µM | IC50 [2]: 3.11 ± 0.55 µM

O=C(/C=C(\O)C(=O)O)/C=C/c1cn(-c2ccc(Cl)cc2)c2ccccc12 [Compound 5f]
IC50 [1]: 20.95 ± 0.14 µM | IC50 [2]: 2.64 ± 0.61 µM

CCOC(=O)/C(O)=C/C(=O)c1cn(-c2ccc(F)cc2)c2ccccc12 [Compound 8e]
IC50 [1]: 16.4 ± 3.1 µM | IC50 [2]: 12.9 ± 0.59 µM

CCOC(=O)/C(O)=C/C(=O)c1cn(-c2ccccc2)c2ccccc12 [Compound 8d]
IC50 [1]: 11.3 ± 0.89 µM | IC50 [2]: 13.3 ± 3.45 µM

C=CCn1c(S)nnc1CSc1ccccc1[N+](=O)[O-] [SSYA10‐001]
EC50 [3]: 81 µM | IC50 [7]: 7.5 µM

O=C(/C=C(\O)C(=O)O)/C=C/c1cn(-c2ccc(F)cc2)c2ccccc12 [Compound 4]
IC50 [8]: 8.2 µM | CC50 [9]: > 264 µM | activity range on MERS-CoV [10]: submicromolar | EC50 [11]: 1.7 µM | IC50 [12]: 4.7 µM | activity range on HCoV229E [13]: low micromolar

CCOC(=O)/C(O)=C/C(=O)/C=C/c1cn(-c2ccc(C#N)cc2)c2ccccc12 [Compound 6g]
IC50 [1]: 2.35 ± 0.4 µM | CC50 [4]: > 100 µM | SI = CC50/EC50 [5]: >8 | EC50 [5]: 11.8 ± 7.45 µM | IC50 [2]: 6.26 ± 0.65 µM

CCOC(=O)/C(O)=C/C(=O)/C=C/c1cn(-c2ccc(F)cc2)c2ccccc12 [Compound 3]
IC50 [8]: 13.6 ± 3.2 µM | CC50 [9]: > 264 µM | activity range on MERS-CoV [10]: submicromolar | SI = CC50/EC50 [11]: >16 | EC50 [11]: 16.1 ± 3.25 µM | IC50 [12]: 5.9 ± 0.3 µM | activity range on HCoV229E [13]: low micromolar

COc1ccc(-n2cc(/C=C/C(=O)/C=C(\O)C(=O)O)c3ccccc32)cc1 [Compound 5a]
IC50 [1]: 11.2 ± 1.37 µM | IC50 [2]: 2.83 ± 0.54 µM

CC[C@@]1(O)C(=O)OCc2c1cc1n(c2=O)Cc2cc3ccccc3nc2-1 [Camptothecin, reference compound]
CC50 [4]: 11.1 ± 0.16 µM

CC(C)c1ccc(-n2cc(C(=O)/C=C(\O)C(=O)O)c3ccccc32)cc1 [Compound 7c]
Activity in enzyme assay IC50 ATPase BSA-TCEP [1]: no activity | IC50 [1]: > 30 µM | remaining activity at 30 µM [1]: 63.9% | CC50 [4]: > 100 µM | SI = CC50/EC50 [5]: >12 | EC50 [5]: 8.1 ± 1.37 µM | IC50 [2]: 0.7 ± 0.13 µM

Cc1ccc(-n2cc(C(=O)/C=C(\O)C(=O)O)c3ccccc32)cc1 [Compound 7b]
Activity in enzyme assay IC50 ATPase BSA-TCEP [1]: no activity | IC50 [1]: > 30 µM | remaining activity at 30 µM [1]: 70.8% | IC50 [2]: 1.27 ± 0.29 µM

N#Cc1ccc(-n2cc(/C=C/C(=O)/C=C(\O)C(=O)O)c3ccccc32)cc1 [Compound 5g]
IC50 [1]: 13.6 ± 3.8 µM | IC50 [2]: 10 ± 2.07 µM

O=C(O)/C(O)=C/C(=O)c1cn(-c2ccccc2)c2ccccc12 [Compound 7d]
IC50 [1]: > 30 µM | remaining activity at 30 µM [1]: 102% | IC50 [2]: > 30 µM | remaining activity at 30 µM [2]: 75.1%

CCOC(=O)/C(O)=C/C(=O)c1cn(-c2ccc(C)cc2)c2ccccc12 [Compound 8b]
IC50 [1]: 18.6 ± 1.14 µM | IC50 [2]: 17.5 ± 1.37 µM

CCOC(=O)/C(O)=C/C(=O)/C=C/c1cn(-c2ccc(C(C)C)cc2)c2ccccc12 [Compound 6c]
IC50 [1]: 13.5 ± 3.34 µM | IC50 [2]: 4.16 ± 0.44 µM

Cc1ccc(-n2cc(/C=C/C(=O)/C=C(\O)C(=O)O)c3ccccc32)cc1 [Compound 5b]
IC50 [1]: 5.12 ± 0.38 µM | IC50 [2]: 11.7 ± 0.94 µM

CCOC(=O)/C(O)=C/C(=O)/C=C/c1cn(-c2ccc(Cl)cc2)c2ccccc12 [Compound 6f]
IC50 [1]: 3.39 ± 0.11 µM | CC50 [4]: > 100 µM | SI = CC50/EC50 [5]: >12 | EC50 [5]: 8 ± 2.19 µM | IC50 [2]: 2.05 ± 0.03 µM

— paper PMC12276029, “Structure−Activity Relationships of New 1‐Aryl‐1H‐Indole Derivatives as SARS‐CoV‐2 Nsp13 Inhibitors” (Chemmedchem, 2025)
